# Earlier results, collected in patent US8389248B2, “Deoxyketohexose isomerase and method for producing deoxyhexose and derivative thereof using same” (priority 2006, dated 2013).
# Tested on: L-rhamnose isomerase
# Details: for Influence of chelating agents on enzyme activity: chelating agent concurrently present during the assay of the activity
Compound,Influence of chelating agents on enzyme activity,Influence of metal ions: inhibition of the enzyme (1 mM)
O=C(O)CN(CCN(CC(=O)O)CC(=O)O)CC(=O)O [EDTA],hardly inhibited,–
[Co+2] [cobalt ion],–,about 30%
O=C(O)CN(CCOCCOCCN(CC(=O)O)CC(=O)O)CC(=O)O [EGTA],hardly inhibited,–
